Source: publication PMC8800111 (The Journal of Biological Chemistry, 2021)

Columns and labels:
Assay type in all cases: cell-based
[1] = biological target: proteins of U3A human fibrosarcoma cells (4462 proteins detected) (Homo sapiens, UniProt O00399); conditions: protein DCTN6, U3A cells
[2] = biological target: proteins of U3A human fibrosarcoma cells (4462 proteins detected) (Homo sapiens, UniProt P24666); conditions: protein ACP1, U3A cells
[3] = biological target: proteins of U3A human fibrosarcoma cells (4462 proteins detected) (Homo sapiens, UniProt Q8NFI3); conditions: protein ENGASE; soluble abundance after heat, U3A cells
Chain of proteins of U3A human fibrosarcoma cells (4462 proteins detected) (Homo sapiens, UniProt Q8NFI3) (Q8NFI3 whole entry): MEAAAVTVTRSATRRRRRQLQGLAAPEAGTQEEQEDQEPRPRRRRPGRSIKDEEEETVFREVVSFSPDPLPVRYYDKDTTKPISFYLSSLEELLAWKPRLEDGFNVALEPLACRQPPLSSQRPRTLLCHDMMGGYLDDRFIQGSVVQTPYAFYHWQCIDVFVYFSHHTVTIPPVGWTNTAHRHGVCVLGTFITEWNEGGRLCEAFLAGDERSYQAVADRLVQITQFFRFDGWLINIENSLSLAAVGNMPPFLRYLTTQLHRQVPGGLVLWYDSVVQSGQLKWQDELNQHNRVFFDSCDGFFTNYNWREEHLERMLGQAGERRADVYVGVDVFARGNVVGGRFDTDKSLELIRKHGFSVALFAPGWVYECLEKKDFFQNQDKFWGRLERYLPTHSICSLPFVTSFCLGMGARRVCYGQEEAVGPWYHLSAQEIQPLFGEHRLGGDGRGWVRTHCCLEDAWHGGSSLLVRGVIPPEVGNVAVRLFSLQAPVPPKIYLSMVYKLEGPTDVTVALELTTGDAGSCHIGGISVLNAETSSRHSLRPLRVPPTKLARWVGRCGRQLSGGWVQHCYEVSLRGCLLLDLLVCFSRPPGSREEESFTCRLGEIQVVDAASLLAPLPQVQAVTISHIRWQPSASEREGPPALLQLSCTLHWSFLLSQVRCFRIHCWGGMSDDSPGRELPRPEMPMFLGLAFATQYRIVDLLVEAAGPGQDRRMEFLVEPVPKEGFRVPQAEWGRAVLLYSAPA

[4] = biological target: proteins of U3A human fibrosarcoma cells (4462 proteins detected) (Homo sapiens, UniProt Q9Y3B4); conditions: protein SF3B6; soluble abundance after heat, U3A cells
Chain of proteins of U3A human fibrosarcoma cells (4462 proteins detected) (Homo sapiens, UniProt Q9Y3B4) (Q9Y3B4 whole entry): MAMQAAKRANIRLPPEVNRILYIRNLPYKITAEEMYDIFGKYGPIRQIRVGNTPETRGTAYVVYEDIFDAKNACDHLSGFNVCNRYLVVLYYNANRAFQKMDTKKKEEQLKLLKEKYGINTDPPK

[5] = biological target: proteins of U3A human fibrosarcoma cells (4462 proteins detected) (Homo sapiens, UniProt Q9Y2Q3); conditions: protein GSTK1; U3A cells
[6] = biological target: proteins of U3A human fibrosarcoma cells (4462 proteins detected) (Homo sapiens, UniProt Q9UPN9); conditions: protein TRIM33; U3A cells
[7] = biological target: proteins of U3A human fibrosarcoma cells (4462 proteins detected) (Homo sapiens, UniProt P61201); conditions: protein COPS2; U3A cells
[8] = biological target: proteins of U3A human fibrosarcoma cells (4462 proteins detected) (Homo sapiens, UniProt O75367); conditions: protein H2AFY; U3A, 10 μM, 2 h
[9] = biological target: proteins of U3A human fibrosarcoma cells (4462 proteins detected) (Homo sapiens, UniProt Q16763); conditions: protein UBE2S; U3A, 10 μM, 2 h
[10] = biological target: proteins of U3A human fibrosarcoma cells (4462 proteins detected) (Homo sapiens, UniProt Q9UBQ5); conditions: protein EIF3K; U3A cells
[11] = biological target: proteins of U3A human fibrosarcoma cells (4462 proteins detected) (Homo sapiens, UniProt Q13627); conditions: protein DYRK1A, U3A cells
[12] = biological target: proteins of U3A human fibrosarcoma cells (4462 proteins detected) (Homo sapiens, UniProt Q9Y6A4); conditions: protein CFAP20; soluble abundance after heat, U3A cells
Chain of proteins of U3A human fibrosarcoma cells (4462 proteins detected) (Homo sapiens, UniProt Q9Y6A4) (Q9Y6A4 whole entry): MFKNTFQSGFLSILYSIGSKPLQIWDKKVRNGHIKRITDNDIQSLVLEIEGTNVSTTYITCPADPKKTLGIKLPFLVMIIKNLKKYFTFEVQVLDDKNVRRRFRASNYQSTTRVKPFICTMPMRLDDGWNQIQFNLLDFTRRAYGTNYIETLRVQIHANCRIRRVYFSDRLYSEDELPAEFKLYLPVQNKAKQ

[13] = biological target: proteins of U3A human fibrosarcoma cells (4462 proteins detected) (Homo sapiens, UniProt Q9UIJ7); conditions: protein AK3; U3A cells
[14] = biological target: proteins of U3A human fibrosarcoma cells (4462 proteins detected) (Homo sapiens, UniProt Q9NVZ3); conditions: protein NECAP2; U3A cells
Chain of proteins of U3A human fibrosarcoma cells (4462 proteins detected) (Homo sapiens, UniProt Q9NVZ3) (Q9NVZ3 whole entry): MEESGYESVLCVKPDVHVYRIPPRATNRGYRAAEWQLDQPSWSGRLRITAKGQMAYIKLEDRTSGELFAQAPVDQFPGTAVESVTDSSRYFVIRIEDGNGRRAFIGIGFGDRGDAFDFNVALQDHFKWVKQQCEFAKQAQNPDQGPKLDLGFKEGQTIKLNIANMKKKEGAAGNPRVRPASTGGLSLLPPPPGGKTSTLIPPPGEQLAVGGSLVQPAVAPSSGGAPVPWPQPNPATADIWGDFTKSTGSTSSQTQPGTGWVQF

[15] = biological target: proteins of U3A human fibrosarcoma cells (4462 proteins detected) (Homo sapiens, UniProt O60573); conditions: protein EIF4E2; soluble abundance after heat, U3A cells
[16] = biological target: proteins of U3A human fibrosarcoma cells (4462 proteins detected) (Homo sapiens, UniProt Q6P2Q9); conditions: protein PRPF8; soluble abundance after heat, U3A cells
[17] = biological target: proteins of U3A human fibrosarcoma cells (4462 proteins detected) (Homo sapiens, UniProt Q8WW12); conditions: protein PCNP, U3A cells
[18] = biological target: proteins of U3A human fibrosarcoma cells (4462 proteins detected) (Homo sapiens, UniProt O75459); conditions: protein PAGE1, U3A cells
Chain of proteins of U3A human fibrosarcoma cells (4462 proteins detected) (Homo sapiens, UniProt O75459) (O75459 whole entry): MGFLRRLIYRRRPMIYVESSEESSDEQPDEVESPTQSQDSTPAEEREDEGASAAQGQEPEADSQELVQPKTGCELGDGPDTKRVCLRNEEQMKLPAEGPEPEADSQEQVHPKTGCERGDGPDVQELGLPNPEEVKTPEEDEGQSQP

[19] = biological target: proteins of U3A human fibrosarcoma cells (4462 proteins detected) (Homo sapiens, UniProt Q3B726); conditions: protein TWISTNB; U3A cells
Chain of proteins of U3A human fibrosarcoma cells (4462 proteins detected) (Homo sapiens, UniProt Q3B726) (Q3B726 whole entry): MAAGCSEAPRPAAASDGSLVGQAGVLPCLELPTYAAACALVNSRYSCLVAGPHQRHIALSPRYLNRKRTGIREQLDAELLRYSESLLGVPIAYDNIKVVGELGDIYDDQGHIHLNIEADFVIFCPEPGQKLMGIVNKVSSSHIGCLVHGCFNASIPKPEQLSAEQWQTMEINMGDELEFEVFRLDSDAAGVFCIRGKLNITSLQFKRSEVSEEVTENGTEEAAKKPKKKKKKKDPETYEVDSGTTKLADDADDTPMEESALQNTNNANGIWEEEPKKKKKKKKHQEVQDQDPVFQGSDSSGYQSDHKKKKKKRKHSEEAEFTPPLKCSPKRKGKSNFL

[20] = biological target: proteins of U3A human fibrosarcoma cells (4462 proteins detected) (Homo sapiens, UniProt P17813); conditions: protein ENG; U3A cells
[21] = biological target: proteins of U3A human fibrosarcoma cells (4462 proteins detected) (Homo sapiens, UniProt O95456); conditions: protein PSMG1, U3A cells
[22] = biological target: proteins of U3A human fibrosarcoma cells (4462 proteins detected) (Homo sapiens, UniProt Q8IY18); conditions: protein SMC5; U3A, 10 μM, 2 h
Chain of proteins of U3A human fibrosarcoma cells (4462 proteins detected) (Homo sapiens, UniProt Q8IY18) (Q8IY18 whole entry): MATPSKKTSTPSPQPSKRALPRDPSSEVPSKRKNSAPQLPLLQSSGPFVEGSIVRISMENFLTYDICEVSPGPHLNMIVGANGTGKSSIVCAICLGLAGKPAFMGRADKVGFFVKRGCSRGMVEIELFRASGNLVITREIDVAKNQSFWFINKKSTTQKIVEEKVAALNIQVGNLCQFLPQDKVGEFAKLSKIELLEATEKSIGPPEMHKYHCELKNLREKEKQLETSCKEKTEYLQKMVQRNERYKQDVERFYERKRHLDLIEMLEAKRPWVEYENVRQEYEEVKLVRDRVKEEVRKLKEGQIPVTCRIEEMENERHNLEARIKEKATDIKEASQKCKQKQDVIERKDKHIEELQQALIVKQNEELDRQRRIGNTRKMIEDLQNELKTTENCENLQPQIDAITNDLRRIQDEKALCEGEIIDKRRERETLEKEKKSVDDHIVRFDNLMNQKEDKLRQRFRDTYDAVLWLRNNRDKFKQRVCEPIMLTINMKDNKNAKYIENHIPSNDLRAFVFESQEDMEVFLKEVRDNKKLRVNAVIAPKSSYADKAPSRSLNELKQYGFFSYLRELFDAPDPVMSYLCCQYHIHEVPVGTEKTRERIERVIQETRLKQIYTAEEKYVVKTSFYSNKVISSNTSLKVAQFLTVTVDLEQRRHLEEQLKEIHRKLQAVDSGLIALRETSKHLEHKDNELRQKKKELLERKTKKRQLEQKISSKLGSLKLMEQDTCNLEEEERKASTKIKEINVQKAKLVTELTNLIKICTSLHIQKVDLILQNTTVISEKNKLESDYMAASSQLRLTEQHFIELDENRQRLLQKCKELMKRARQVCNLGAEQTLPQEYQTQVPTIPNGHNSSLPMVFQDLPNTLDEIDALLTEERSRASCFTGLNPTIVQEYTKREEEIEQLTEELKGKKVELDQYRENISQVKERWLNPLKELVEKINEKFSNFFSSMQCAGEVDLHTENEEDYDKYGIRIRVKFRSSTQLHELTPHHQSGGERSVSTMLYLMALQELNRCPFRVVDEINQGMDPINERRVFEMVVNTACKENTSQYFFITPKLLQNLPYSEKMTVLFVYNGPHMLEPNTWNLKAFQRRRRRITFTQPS

[23] = biological target: proteins of U3A human fibrosarcoma cells (4462 proteins detected) (Homo sapiens, UniProt Q8NDC0); conditions: protein MAPK1IP1L; U3A cells
[24] = biological target: proteins of U3A human fibrosarcoma cells (4462 proteins detected) (Homo sapiens, UniProt Q4KWH8); conditions: protein PLCH1; U3A, 10 μM, 2 h
Chain of proteins of U3A human fibrosarcoma cells (4462 proteins detected) (Homo sapiens, UniProt Q4KWH8) (Q4KWH8 whole entry): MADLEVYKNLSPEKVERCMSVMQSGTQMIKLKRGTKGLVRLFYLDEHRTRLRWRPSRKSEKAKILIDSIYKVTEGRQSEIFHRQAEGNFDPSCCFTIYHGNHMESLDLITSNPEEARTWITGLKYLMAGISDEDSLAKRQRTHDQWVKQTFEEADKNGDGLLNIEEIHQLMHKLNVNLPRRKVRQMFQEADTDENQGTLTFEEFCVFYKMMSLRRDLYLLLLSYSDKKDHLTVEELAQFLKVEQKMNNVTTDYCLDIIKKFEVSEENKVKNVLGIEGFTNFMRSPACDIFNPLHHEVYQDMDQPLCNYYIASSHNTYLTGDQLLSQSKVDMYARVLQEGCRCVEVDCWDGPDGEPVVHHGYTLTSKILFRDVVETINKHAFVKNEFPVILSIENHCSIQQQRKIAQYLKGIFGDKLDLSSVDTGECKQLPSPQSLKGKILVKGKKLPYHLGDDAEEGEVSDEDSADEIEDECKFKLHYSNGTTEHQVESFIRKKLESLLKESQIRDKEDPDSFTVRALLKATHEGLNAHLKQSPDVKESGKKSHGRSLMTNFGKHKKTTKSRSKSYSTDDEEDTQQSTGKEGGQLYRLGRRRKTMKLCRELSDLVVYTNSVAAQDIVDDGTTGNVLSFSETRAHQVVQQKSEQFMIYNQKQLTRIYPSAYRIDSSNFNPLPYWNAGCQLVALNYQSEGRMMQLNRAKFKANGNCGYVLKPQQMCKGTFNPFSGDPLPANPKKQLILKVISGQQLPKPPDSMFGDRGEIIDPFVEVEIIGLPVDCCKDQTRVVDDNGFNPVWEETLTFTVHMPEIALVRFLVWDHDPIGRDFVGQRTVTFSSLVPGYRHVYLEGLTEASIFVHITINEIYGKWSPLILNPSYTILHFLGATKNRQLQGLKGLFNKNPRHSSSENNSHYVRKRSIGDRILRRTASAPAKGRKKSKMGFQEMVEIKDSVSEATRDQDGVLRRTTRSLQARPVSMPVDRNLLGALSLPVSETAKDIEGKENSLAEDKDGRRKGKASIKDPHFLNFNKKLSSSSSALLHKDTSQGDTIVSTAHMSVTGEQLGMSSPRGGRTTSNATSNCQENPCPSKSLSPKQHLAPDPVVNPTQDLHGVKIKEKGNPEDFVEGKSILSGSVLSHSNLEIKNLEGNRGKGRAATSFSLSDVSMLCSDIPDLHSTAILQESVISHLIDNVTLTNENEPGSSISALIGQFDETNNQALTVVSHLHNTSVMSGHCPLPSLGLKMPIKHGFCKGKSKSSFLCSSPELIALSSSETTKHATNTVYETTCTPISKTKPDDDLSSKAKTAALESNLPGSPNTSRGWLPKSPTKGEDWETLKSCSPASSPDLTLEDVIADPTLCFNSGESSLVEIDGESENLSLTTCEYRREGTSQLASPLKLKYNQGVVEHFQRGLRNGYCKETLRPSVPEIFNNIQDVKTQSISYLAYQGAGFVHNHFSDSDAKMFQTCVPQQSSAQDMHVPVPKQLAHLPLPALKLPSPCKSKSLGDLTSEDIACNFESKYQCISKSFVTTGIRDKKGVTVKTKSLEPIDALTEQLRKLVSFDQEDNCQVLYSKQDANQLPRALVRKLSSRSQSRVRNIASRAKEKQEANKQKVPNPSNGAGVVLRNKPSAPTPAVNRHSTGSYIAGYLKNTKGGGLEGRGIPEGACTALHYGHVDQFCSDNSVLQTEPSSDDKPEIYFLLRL

[25] = biological target: proteins of U3A human fibrosarcoma cells (4462 proteins detected) (Homo sapiens, UniProt Q16775); conditions: protein HAGH, U3A cells
[26] = biological target: proteins of U3A human fibrosarcoma cells (4462 proteins detected) (Homo sapiens, UniProt Q9HAU0); conditions: protein PLEKHA5, U3A cells
[27] = biological target: proteins of U3A human fibrosarcoma cells (4462 proteins detected) (Homo sapiens, UniProt Q9H6T3); conditions: protein RPAP3; soluble abundance after heat, U3A cells
[28] = biological target: proteins of U3A human fibrosarcoma cells (4462 proteins detected) (Homo sapiens, UniProt P49441); conditions: protein INPP1, U3A cells
Chain of proteins of U3A human fibrosarcoma cells (4462 proteins detected) (Homo sapiens, UniProt P49441) (P49441 whole entry): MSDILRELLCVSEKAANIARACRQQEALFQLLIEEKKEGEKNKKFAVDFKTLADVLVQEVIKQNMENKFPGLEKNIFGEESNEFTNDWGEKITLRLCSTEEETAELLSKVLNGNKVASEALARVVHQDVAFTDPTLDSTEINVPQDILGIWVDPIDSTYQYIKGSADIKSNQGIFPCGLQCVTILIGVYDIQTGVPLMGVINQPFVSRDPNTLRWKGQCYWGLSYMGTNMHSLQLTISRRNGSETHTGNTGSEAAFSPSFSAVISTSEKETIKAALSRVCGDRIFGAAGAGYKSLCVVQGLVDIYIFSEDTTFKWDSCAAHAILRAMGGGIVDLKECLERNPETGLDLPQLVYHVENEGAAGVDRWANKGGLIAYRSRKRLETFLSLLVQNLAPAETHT

[29] = biological target: proteins of U3A human fibrosarcoma cells (4462 proteins detected) (Homo sapiens, UniProt P49841); conditions: protein GSK3B; soluble abundance after heat, U3A cells
[30] = biological target: proteins of U3A human fibrosarcoma cells (4462 proteins detected) (Homo sapiens, UniProt P30086); conditions: protein PEBP1, U3A cells

SMILES: CCc1nc(N)nc(N)c1-c1ccc(Cl)cc1 [pyrimethamine]
- Log2 (PYR/DMSO) [1]: -0.04
- Log2 (PYR/DMSO) [2]: -0.04
- Log2 (PYR/DMSO) [3]: 0.15
- Log2 (PYR/DMSO) [4]: 0.14
- Log2 (PYR/DMSO) [5]: 0.18
- Log2 (PYR/DMSO) [6]: 0.16
- Log2 (PYR/DMSO) [7]: 0.21
- Log2 (PYR/DMSO), H2AFY [8]: 0.33
- Log2 (PYR/DMSO), UBE2S [9]: 0.25
- Log2 (PYR/DMSO) [10]: 0.20
- Log2 (PYR/DMSO) [11]: -0.05
- Log2 (PYR/DMSO) [12]: 0.14
- Log2 (PYR/DMSO) [13]: 0.16
- Log2 (PYR/DMSO) [14]: 0.21
- Log2 (PYR/DMSO) [15]: 0.15
- Log2 (PYR/DMSO) [16]: 0.14
- Log2 (PYR/DMSO) [17]: -0.04
- Log2 (PYR/DMSO) [18]: -0.04
- Log2 (PYR/DMSO) [19]: 0.16
- Log2 (PYR/DMSO) [20]: 0.15
- Log2 (PYR/DMSO) [21]: -0.05
- Log2 (PYR/DMSO), SMC5 [22]: 0.30
- Log2 (PYR/DMSO) [23]: 0.22
- Log2 (PYR/DMSO), PLCH1 [24]: 0.32
- Log2 (PYR/DMSO) [25]: -0.04
- Log2 (PYR/DMSO) [26]: -0.05
- Log2 (PYR/DMSO) [27]: 0.14
- Log2 (PYR/DMSO) [28]: -0.04
- Log2 (PYR/DMSO) [29]: 0.15
- Log2 (PYR/DMSO) [30]: -0.04
